# Reference: patent publication US9017692B2, “Antimicrobial agent, bacterial strain, biosynthesis, and methods of use” (priority 2011, dated 2015)
# What was measured:
# [1] = test system: E. coli O157:H7 ATCC 43889; test: Spot-on-lawn antimicrobial activity; assay type: cell-based, Escherichia coli; settings: broth medium LB
# Description: (§1) Spot-on-lawn method [He, Z., et al., Appl. Environ. Microbiol., (2007) 73:168-178] was used for the bioassay of antimicrobial activity. Bacterial indicators were incubated at 37° C. for 24 h, except Pseudomonas putida, Clostridium difficile and methycillin resistant Staphylococcus aureus which were incubated for 48 h (Table 1). The indicator overlay was prepared by pouring 10 ml soft agar (seeded with 10 μL indicator culture) onto tryptose agar as basal medium in a petri dish. Purified antimicrobials were two-fold serially diluted and aliquots (10 μL each) were spotted onto the soft agar. The plates were incubated overnight and inspected for the presence of growth inhibition zones. Antimicrobial activity was expressed in arbitrary units (AU)/mL; this value is the reciprocal of the highest dilution displaying a zone of inhibition corresponding to 1 mL of the non-diluted antimicrobial preparation.
# (§2) Purified paenibacterin was used for the antimicrobial spectrum test. Microorganisms tested for sensitivity to this compound included pathogenic (e.g., Salmonella Typhimurium, Escherichia coli O157:H7, Listeria monocytogenes, and Staphylococcus aureus) and non-pathogenic (e.g., Escherichia coli K-12, Pseudomonas putida, and Enterococcus faecalis) bacteria (Table 1).
# E. coli O157:H7 EDL 933 = test: Spot-on-lawn antimicrobial activity; assay type: cell-based, Escherichia coli; settings: broth medium LB
# Description: as §1, §2
# [2] = test system: Bacillus cereus ATCC 14579; test: Spot-on-lawn antimicrobial activity; assay type: cell-based; settings: TSBYE
# Description: as §1, §2
# [3] = test system: Clostridium difficile A515; test: Spot-on-lawn antimicrobial activity; assay type: cell-based; settings: BHIYE
# Description: as §1, §2
# [4] = test system: Enterococcus faecalis ATCC 29212; test: Spot-on-lawn antimicrobial activity; assay type: cell-based; settings: MRS
# Description: as §1, §2
# L. lactis ATCC 11454 = test: Spot-on-lawn antimicrobial activity; assay type: cell-based; settings: MRS
# Description: as §1, §2
# [5] = test system: Pseudomonas putida ATCC 45491; test: Spot-on-lawn antimicrobial activity; assay type: cell-based; settings: TSBYE
# Description: as §1, §2
# [6] = test system: Staphylococcus aureus ATCC 6538; test: Spot-on-lawn antimicrobial activity; assay type: cell-based; settings: TSBYE
# Description: as §1, §2
# [7] = test system: L. monocytogenes OSY-8578; test: Spot-on-lawn antimicrobial activity; assay type: cell-based, Listeria monocytogenes; settings: TSBYE
# Description: as §1, §2
# Escherichia coli O157:H7 = test: Antimicrobial spectrum test; assay type: cell-based; settings: gram-negative pathogens such as Escherichia coli O157:H7
# Description: as §1, §2
# L. monocytogenes = test: Antimicrobial spectrum test; assay type: cell-based, Listeria monocytogenes; settings: gram-positive pathogens such as L. monocytogenes
# Description: as §1, §2
# [8] = Enzyme sensitivity test (residual antimicrobial activity, spot-on-lawn); assay type: physicochemical; settings: 10 h
# Description: Crude extracts of Paenibacillus thiaminolyticus OSY-SE were tested for sensitivity to heat and pH change while purified antimicrobial compounds were used for enzyme sensitivity tests. For thermal stability test, crude extract solutions were exposed to 37° C., 55° C. (in incubators) or 80° C. (in a water bath) for 24 h or autoclaved at 121° C. for 5 minutes. For pH stability test, crude extract solutions were diluted with 25 mM phosphate buffer (pH 7.0) and adjusted to pH 3.0, 5.0 and 9.0, followed by incubation for 12 h. Samples were neutralized to pH 7.0 before the antimicrobial activity test. Enzyme sensitivity tests were performed in 25 mM phosphate buffer (pH 7.0) with trypsin (type I, 12705 U/mg), lipase (type I, 9 U/mg), pronase (6.31 U/mg), α-glucosidase (type I, 100U/1.93 mg), lysozyme (46400 U/mg) and in 25 mM phosphate buffer (pH 8.0) with polymyxin acylase (16 U/mg). All enzymes were purchased from Sigma (St. Louis, Mo.) except polymyxin acylase (Wako Chemicals USA, Inc., Richmond, Va.). Digesting solutions were prepared at concentration of 0.1 mg/mL for polymyxin acylase and 0.5 mg/mL for others. These mixtures of enzyme and antimicrobial compound (40 μL of final volume) were incubated at 37° C. for 10 h. Quantitative spot-on-lawn bioassay was used to measure antimicrobial activities after these treatments.
# ABA.1570 = test: MIC, CLSI broth microdilution, Gram-negative clinical isolates; assay type: cell-based, Acinetobacter baumannii
# Description: (§3) Plates were incubated at 35° C. for 24 h.
# (§4) The activity of paenibacterin was also tested against clinical isolates of the following Gram-negative bacterial strains: four strains of the species Pseudomonas aeruginosa (PAE), three strains of the species Acinetobacter baumannii (ABA), two strains of the species Escherichia coli (ECO), and four strains of the species Klebsiella pneumoniae (KPN). Particularly, the strains of Gram-negative bacteria included polymyxin B-resistant (PMB-R) and polymyxin B-sensitive (PMB-S) strains of each above listed species. The MICs were determined using the above described CLSI broth microdilution method, in which the method was performed with both non-binding surface coated (NBS) and polystyrene (PS) 96-well plates (Tables 11 and 12, respectively). The MICs were generally lower in the NBS 96-well plates as compared to the PS 96-well plates.
# ABA.2232 = test: as above; assay type: cell-based, Acinetobacter baumannii
# Description: as §3, §4
# ABA.2315 = test: as above; assay type: cell-based, Acinetobacter baumannii
# Description: as §3, §4
# ATCC 25922 ECO.35 = test: as above; assay type: cell-based, Escherichia coli
# Description: as §3, §4
# ECO.2276 = test: as above; assay type: cell-based, Escherichia coli
# Description: as §3, §4
# KPN.2317 = test: as above; assay type: cell-based, Klebsiella pneumoniae
# Description: as §3, §4
# KPN.674 = test: as above; assay type: cell-based, Klebsiella pneumoniae
# Description: as §3, §4
# PMB-R, KPN.2463 = test: as above; assay type: cell-based, Klebsiella pneumoniae
# Description: as §3, §4
# PMB-S, KPN.2461 = test: as above; assay type: cell-based, Klebsiella pneumoniae
# Description: as §3, §4
substance,measurement,setting,value
paenibacterin,Antimicrobial activity (AU/ml),[1],1600 AU/ml
same,Antimicrobial activity (AU/ml),E. coli O157:H7 EDL 933,1600 AU/ml
same,Antimicrobial activity (AU/ml),[2],800 AU/ml
same,Antimicrobial activity (AU/ml),[3],200 AU/ml
same,Antimicrobial activity (AU/ml),[4],0 AU/ml
same,Antimicrobial activity (AU/ml),[4]; listed as Paenibacterin,no activity
same,Antimicrobial activity (AU/ml),L. lactis ATCC 11454,800 AU/ml
same,Antimicrobial activity (AU/ml),[5],400 AU/ml
same,Antimicrobial activity (AU/ml),[6],100 AU/ml
same,Antimicrobial activity (AU/ml),[7],1600 AU/ml
same,Antimicrobial activity (in words),Escherichia coli O157:H7,good activity
same,Antimicrobial activity (in words),L. monocytogenes,good activity
same,Antimicrobial activity after enzyme treatment,"[8]; lipase 0.5 mg/mL, pH 7.0, 37° C.",resistant
same,Antimicrobial activity after enzyme treatment,"[8]; lysozyme 0.5 mg/mL, pH 7.0, 37° C.",resistant
same,Antimicrobial activity after enzyme treatment,"[8]; polymyxin acylase 0.1 mg/mL, pH 8.0, 37° C.",activity was lost
same,Antimicrobial activity after enzyme treatment,"[8]; pronase 0.5 mg/mL, pH 7.0, 37° C.",activity was lost
same,Antimicrobial activity after enzyme treatment,"[8]; trypsin 0.5 mg/mL, phosphate buffer pH 7.0, 37° C.",resistant
same,Antimicrobial activity after enzyme treatment,"[8]; α-glucosidase 0.5 mg/mL, pH 7.0, 37° C.",resistant
same,Minimum inhibitory concentration (MIC),ABA.1570; NBS 96-well plates,2 µg/mL
same,Minimum inhibitory concentration (MIC),ABA.1570; PS 96-well plates,32 µg/mL
same,Minimum inhibitory concentration (MIC),ABA.2232; NBS 96-well plates,2 µg/mL
same,Minimum inhibitory concentration (MIC),ABA.2232; PS 96-well plates,32 µg/mL
same,Minimum inhibitory concentration (MIC),ABA.2315; NBS 96-well plates,2 µg/mL
same,Minimum inhibitory concentration (MIC),ABA.2315; PS 96-well plates,32 µg/mL
same,Minimum inhibitory concentration (MIC),"ATCC 25922 ECO.35; ECO.35 (ATCC 25922), NBS 96-well plates",8 µg/mL
same,Minimum inhibitory concentration (MIC),"ATCC 25922 ECO.35; ECO.35, PS 96-well plates",16 µg/mL
same,Minimum inhibitory concentration (MIC),ECO.2276; NBS 96-well plates,8 µg/mL
same,Minimum inhibitory concentration (MIC),ECO.2276; PS 96-well plates,16 µg/mL
same,Minimum inhibitory concentration (MIC),KPN.2317; NBS 96-well plates,64 µg/mL
same,Minimum inhibitory concentration (MIC),KPN.2317; PS 96-well plates,64 µg/mL
same,Minimum inhibitory concentration (MIC),KPN.674; NBS 96-well plates,8 µg/mL
same,Minimum inhibitory concentration (MIC),KPN.674; PS 96-well plates,32 µg/mL
same,Minimum inhibitory concentration (MIC),"PMB-R, KPN.2463; KPN.2463 (PMB-R), NBS 96-well plates",8 µg/mL
same,Minimum inhibitory concentration (MIC),"PMB-R, KPN.2463; KPN.2463, PS 96-well plates",32 µg/mL
same,Minimum inhibitory concentration (MIC),"PMB-S, KPN.2461; KPN.2461 (PMB-S), NBS 96-well plates",4 µg/mL
same,Minimum inhibitory concentration (MIC),"PMB-S, KPN.2461; KPN.2461, PS 96-well plates",32 µg/mL
